Columns and labels:
[1] = tested on: Cabbage Looper (Trichoplusia ni); experiment: Bioassay on Cabbage Looper (CL), 128-well diet tray assay; format: in vivo; settings: for pest or weed control at 50 µg/cm2: Cabbage Looper, Table ABC, read-out: CL rating
Description: (§1) Example A: Bioassays on Beet Armyworm (Spodoptera Exigua, LAPHEG) (“BAW”), Corn Earworm (Helicoverpa Zea, HELIZE) (“CEW”), and Cabbage Looper (Trichoplusia Ni, TRIPNI) (“CL”)
(§2) Certain molecules disclosed in this document were tested against BAW, CEW, and CL using procedures described in the following examples. In the reporting of the results, the “BAW, CEW, & CL Rating Table” was used (See Table Section).
Bioassays on CL were conducted using a 128-well diet tray assay. One to five second instar CL larvae were placed in each well (3 mL) of the diet tray that had been previously filled with 1 mL of artificial diet to which 50 μg/cm^2 of the test molecule (dissolved in 50 μL of 90:10 acetone-water mixture) had been applied (to each of eight wells) and then allowed to dry. Trays were covered with a clear self-adhesive cover and held at 25° C., 14:10 light-dark for five to seven days. Percent mortality was recorded for the larvae in each well; activity in the eight wells was then averaged. The results are indicated in the table entitled “Table ABC: Biological Results” (See Table Section).
(§3) Bioassays on BAW and CL were conducted according to the procedures outlined in Example A: Bioassays on Beet Armyworm (“BAW”) and Cabbage Looper (“CL”) using the indicated concentrations.

[2] = tested on: Beet Armyworm (Spodoptera exigua); experiment: Bioassay on Beet Armyworm (BAW), 128-well diet tray assay; format: in vivo; settings: for pest or weed control at 50 µg/cm2: Beet Armyworm, Table ABC, read-out: BAW rating
Description: as §1, §2
Bioassays on BAW were conducted using a 128-well diet tray assay. One to five second instar BAW larvae were placed in each well (3 mL) of the diet tray that had been previously filled with 1 mL of artificial diet to which 50 μg/cm^2 of the test molecule (dissolved in 50 μL of 90:10 acetone-water mixture) had been applied (to each of eight wells) and then allowed to dry. Trays were covered with a clear self-adhesive cover and held at 25° C., 14:10 light-dark for five to seven days. Percent mortality was recorded for the larvae in each well; activity in the eight wells was then averaged. The results are indicated in the table entitled “Table ABC: Biological Results” (See Table Section).
as §3

Compound	pest or weed control at 50 µg/cm2 [1] [%]	pest or weed control at 50 µg/cm2 [2] [%]	also measured
C[C@@H](NC(=O)c1ccc(/C(F)=C/C(c2cc(Cl)c(Cl)c(Cl)c2)C(F)(F)F)cc1Cl)C(=O)N(C)CC(F)(F)F (stereo partly drawn) [F49, 2-Chloro-N—((R)-1-(methyl(2,2,2-trifluoroethyl)amino)-1-oxopropan-2-yl)-4-((Z)-1,4,4,4-tetrafluoro-3-(3,4,5-trichlorophenyl)but-1-en-1-yl)benzamide]	50 to 100	50 to 100	–
C[C@@H](NC(=O)c1ccc(/C(F)=C/C(c2ccc(Cl)c(Cl)c2)C(F)(F)F)cc1Br)C(=O)NCC(F)(F)F (stereo partly drawn) [F123, 2-Bromo-4-((Z)-3-(3,4-dichlorophenyl)-1,4,4,4-tetrafluorobut-1-en-1-yl)-N—((R)-1-oxo-1-((2,2,2-trifluoroethyl)amino)propan-2-yl)benzamide]	50 to 100	50 to 100	–
O=C(CNC(=O)c1ccc(/C(F)=C/C(c2cc(Cl)c(Cl)c(Cl)c2)C(F)(F)F)cc1C(F)(F)F)NCC(F)(F)F (centres unmarked) [F1, (Z)—N-(2-oxo-2-((2,2,2-trifluoroethyl)amino)ethyl)-4-(1,4,4,4-tetrafluoro-3-(3,4,5-trichlorophenyl)but-1-en-1-yl)-2-(trifluoromethyl)benzamide]	50 to 100	50 to 100	mortality at 0.05 µg/cm2 ([1]; 168 h, 0.05 μg/cm^2 on artificial diet, second instar larvae, five to seven days, read-out: CL Percent control (or mortality)): 100%; mortality at 0.5 µg/cm2 ([1]; 168 h, 0.5 μg/cm^2 on artificial diet, second instar larvae, five to seven days, read-out: CL Percent control (or mortality)): 100%; mortality at 5 µg/cm2 ([1]; 168 h, 5 μg/cm^2 on artificial diet, second instar larvae, five to seven days, read-out: CL Percent control (or mortality)): 100%; mortality at 0.05 µg/cm2 ([2]; 168 h, 0.05 μg/cm^2 on artificial diet, second instar larvae, five to seven days, read-out: BAW Percent control (or mortality)): 100%; mortality at 0.5 µg/cm2 ([2]; 168 h, 0.5 μg/cm^2 on artificial diet, second instar larvae, five to seven days, read-out: BAW Percent control (or mortality)): 100%; mortality at 5 µg/cm2 ([2]; 168 h, 5 μg/cm^2 on artificial diet, second instar larvae, five to seven days, read-out: BAW Percent control (or mortality)): 100%
O=C(NC1(C(=O)NCCCC(F)(F)F)CC1)c1ccc(/C(F)=C/C(c2cc(Cl)c(Cl)c(Cl)c2)C(F)(F)F)cc1C(F)(F)F (centres unmarked) [F89, (Z)-4-(1,4,4,4-Tetrafluoro-3-(3,4,5-trichlorophenyl)but-1-en-1-yl)-N-(1-((4,4,4-trifluorobutyl)carbamoyl)cyclopropyl)-2-(trifluoromethyl)benzamide]	50 to 100	50 to 100	–
O=C(NC1(C(=O)NCCC2CC2)CC1)c1ccc(/C(F)=C/C(c2cc(Cl)c(Cl)c(Cl)c2)C(F)(F)F)cc1C(F)(F)F (centres unmarked) [F4, (Z)—N-(1-((2-cyclopropylethyl)carbamoyl)cyclopropyl)-4-(1,4,4,4-tetrafluoro-3-(3,4,5-trichlorophenyl)but-1-en-1-yl)-2-(trifluoromethyl)benzamide]	50 to 100	50 to 100	–
NC(=O)CNC(=O)c1ccc(/C(F)=C/C(c2cc(Cl)c(Cl)c(Cl)c2)C(F)(F)F)cc1C(F)(F)F (centres unmarked) [F127, (Z)—N-(2-Amino-2-oxoethyl)-4-(1,4,4,4-tetrafluoro-3-(3,4,5-trichlorophenyl)but-1-en-1-yl)-2-(trifluoromethyl)benzamide]	50 to 100	50 to 100	–
C=CCNC(=O)[C@@H](C)NC(=O)c1ccc(/C(F)=C/C(c2cc(Cl)c(Cl)c(Cl)c2)C(F)(F)F)cc1C (stereo partly drawn) [F14, N—((R)-1-(Allylamino)-1-oxopropan-2-yl)-2-methyl-4-((Z)-1,4,4,4-tetrafluoro-3-(3,4,5-trichlorophenyl)but-1-en-1-yl)benzamide]	50 to 100	50 to 100	–
C#CCNC(=O)C1(NC(=O)c2ccc(/C(F)=C/C(c3cc(Cl)c(Cl)c(Cl)c3)C(F)(F)F)cc2C(F)(F)F)CC1 (centres unmarked) [F94, (Z)—N-(1-(Prop-2-yn-1-ylcarbamoyl)cyclopropyl)-4-(1,4,4,4-tetrafluoro-3-(3,4,5-trichlorophenyl)but-1-en-1-yl)-2-(trifluoromethyl)benzamide]	50 to 100	50 to 100	–
C[C@@H](NC(=O)c1ccc(/C(F)=C/C(c2cc(Cl)cc(Br)c2)C(F)(F)F)cc1C(F)(F)F)C(=O)NCC(F)(F)F (some centres unmarked) [F109]	50 to 100	50 to 100	–
C=Cc1cc(/C(F)=C/C(c2cc(Cl)c(Cl)c(Cl)c2)C(F)(F)F)ccc1C(=O)N[C@H](C)C(=O)NCC(F)(F)F (stereo partly drawn) [F201, N—((R)-1-Oxo-1-((2,2,2-trifluoroethyl)amino)propan-2-yl)-4-((Z)-1,4,4,4-tetrafluoro-3-(3,4,5-trichlorophenyl)but-1-en-1-yl]-2-vinylbenzamide]	50 to 100	50 to 100	–
Cc1cc(/C(F)=C/C(c2cc(Cl)c(Cl)c(Cl)c2)C(C)(F)F)ccc1C(=O)N[C@H](C)C(=O)NCC(F)(F)F (stereo partly drawn) [F26, 2-Methyl-N—((R)-1-oxo-1-((2,2,2-trifluoroethyl)amino)propan-2-yl)-4-((Z)-1,4,4-trifluoro-3-(3,4,5-trichlorophenyl)pent-1-en-1-yl)benzamide]	50 to 100	50 to 100	–
C[C@@H](NC(=O)c1ccc(/C(F)=C/C(c2cc(F)c(F)c(Br)c2)C(F)(F)F)cc1C(F)(F)F)C(=O)NCC(F)(F)F (stereo partly drawn) [F214, 4-((Z)-3-(3-Bromo-4,5-difluorophenyl)-1,4,4,4-tetrafluorobut-1-en-1-yl)-N—((R)-1-oxo-1-((2,2,2-trifluoroethyl)amino)propan-2-yl)-2-(trifluoromethyl)benzamide]	50 to 100	50 to 100	–
O=C(NC1(C(=O)NCC(F)(F)F)CC1)c1ccc(/C(F)=C/C(c2cc(Cl)c(Cl)c(Cl)c2)C(F)(F)F)cc1Br (centres unmarked) [F21, (Z)-2-Bromo-4-(1,4,4,4-tetrafluoro-3-(3,4,5-trichlorophenyl)but-1-en-1-yl)-N-(1-((2,2,2-trifluoroethyl)carbamoyl)cyclopropyl)benzamide]	50 to 100	50 to 100	–
C[C@@H](NC(=O)c1ccc(/C(F)=C/C(c2cc(F)c(F)c(C#CC(C)(C)C)c2)C(F)(F)F)cc1C(F)(F)F)C(=O)NCC(F)(F)F (stereo partly drawn) [F216, 4-((Z)-3-(3-(3,3-Dimethylbut-1-yn-1-yl)-4,5-difluorophenyl)-1,4,4,4-tetrafluorobut-1-en-1-yl)-N—((R)-1-oxo-1-((2,2,2-trifluoroethyl)amino)propan-2-yl)-2-(trifluoromethyl)benzamide]	50 to 100	50 to 100	–
CC(F)(F)CNC(=O)C1(NC(=O)c2ccc(/C(F)=C/C(c3cc(Cl)c(Cl)c(Cl)c3)C(F)(F)F)cc2C(F)(F)F)CC1 (centres unmarked) [F92, (Z)—N-(1-((2,2-Difluoropropyl)carbamoyl)cyclopropyl)-4-(1,4,4,4-tetrafluoro-3-(3,4,5-trichlorophenyl)but-1-en-1-yl)-2-(trifluoromethyl)benzamide]	50 to 100	50 to 100	–
C[C@@H](NC(=O)c1ccc(/C(F)=C/C(c2cc(Cl)c(Cl)c(Cl)c2)C(F)(F)F)cc1C(F)(F)F)C(=O)NC1CC(F)(F)C1 (stereo partly drawn) [F168, N—((R)-1-((3,3-difluorocyclobutyl)amino)-1-oxopropan-2-yl)-4-((Z)-1,4,4,4-tetrafluoro-3-(3,4,5-trichlorophenyl)but-1-en-1-yl)-2-(trifluoromethyl)benzamide]	50 to 100	50 to 100	–
CN(CC(F)(F)F)C(=O)C1(NC(=O)c2ccc(/C(F)=C/C(c3cc(Cl)cc(C(F)(F)F)c3)C(F)(F)F)cc2C(F)(F)F)CC1 (centres unmarked) [PF45, (Z)-4-(3-(3-Chloro-5-(trifluoromethyl)phenyl)-1,4,4,4-tetrafluorobut-1-en-1-yl)-N-(1-(methyl(2,2,2-trifluoroethyl)carbamoyl)cyclopropyl)-2-(trifluoromethyl)benzamide]	50 to 100	50 to 100	–
COC(=O)CC(NC(=O)c1ccc(/C(F)=C/C(c2cc(Cl)c(Cl)c(Cl)c2)C(F)(F)F)cc1C(F)(F)F)C(F)(F)F (centres unmarked) [F166, Methyl (Z)-4,4,4-trifluoro-3-(4-(1,4,4,4-tetrafluoro-3-(3,4,5-trichlorophenyl)but-1-en-1-yl)-2-(trifluoromethyl)benzamido)butanoate]	50 to 100	50 to 100	–
O=C(NC1CCCN(CC(F)(F)F)C1=O)c1ccc(/C(F)=C/C(c2cc(Cl)c(Cl)c(Cl)c2)C(F)(F)F)cc1C(F)(F)F (centres unmarked) [F104, (Z)—N-(2-Oxo-1-(2,2,2-trifluoroethyl)piperidin-3-yl)-4-(1,4,4,4-tetrafluoro-3-(3,4,5-trichlorophenyl)but-1-en-1-yl)-2-(trifluoromethyl)benzamide]	50 to 100	50 to 100	–

Source: US10251394B2, “Molecules having pesticidal utility, and intermediates, compositions, and processes, related thereto” (Dow AgroSciences LLC, priority 2016, dated 2019)
